According to patent US10745395B2, “Compounds for their use as drugs for the treatment and/or the prevention of infection(s) caused by biofilm-forming bacteria” (CENTRE NATIONAL DE LA RECHERCHE SCIENTIFIQUE, priority 2014, dated 2020):

Experiments:
Assay type in all cases: cell-based, Pseudomonas aeruginosa
[1] = system: P. aeruginosa strain PAR 20 biofilm; test: Early biofilm model, Congo red staining; settings: for absorbance (Congo red, biofilm formation): early biofilm, 0.9 mM, 492 nm
Description: (§1) P. aeruginosa biofilm was set-up in sterile plastic 96-well plates with adherent surface (Greiner Bio-One, USA).
(§2) Twenty microliter quantities of the bacterial stock suspensions, prepared as described above, were added to each well followed with 180 μl of sterile TSB. Final concentration of the bacteria was 1×10^8 CFU/ml.
(§3) The plates were centrifuged for 10 minutes at 2000 rpm to sediment bacteria on the bottom of each well and then incubated for 72 hours (37° C., aerobic conditions).
(§4) Biofilm quantity was determined using Congo red dye according to a modified procedure described by Allison et al. (Allison G C, Sutherland I W. A staining technique for bacteria and its correlation to extracellular carbohydrate production. J Microbiol Meth 2, 93-99 (1984)).
(§5) Briefly, at different time points (0, 6, 18, 24, 48 and 72 hours), the culture medium was gently removed from wells by using the pipette and immediately 200 μl of 0.1% Congo red solution was added. The plates were left for 30 minutes at room temperature and then 10 minutes before the end of staining, the plate was centrifuged for 10 minutes at 2000 rpm and then washed twice with buffered saline to remove unbound dye. Absorbance was measured at λ=492 nm wavelength using spectrophotometer (Awarness Technology Inc., Palm City, Fla., USA). All measurements were performed in triplicates and mean values±SD are given.
(§6) Early biofilm model: formation of early biofilm under influence of the tested substances was observed by filling wells of a 96-well plate with 20 μl of P. aeruginosa suspension and 180 μl of TSB, as described above. Tested iminosugars (compounds 1, 2, 3 and 4) were added immediately after setting-up the bacteria at a final concentration of 0.9 mM. Then, the plate was gently mixed and incubated for 48 hours at 37° C.
(§7) Biofilm formation and the number of viable bacteria were checked in parallel in the following time intervals: 0, 0.5, 8, 24, 48 hours, in accordance with the procedure described above. Biofilm thickness was estimated by staining it with Cango Red and measuring optical density while number of viable bacteria was performed using the standard viable count method. (Allison G C, Sutherland I W. A staining technique for bacteria and its correlation to extracellular carbohydrate production. J Microbiol Meth 2, 93-99 (1984)).
(§8) P. aeruginosa suspension cultures in TSB broth alone were used as a control.

[2] = system: P. aeruginosa strain PAR 5 biofilm; test: Early biofilm model, Congo red staining; settings: for absorbance (Congo red, biofilm formation): 0.9 mM, 492 nm
Description: as §1, §2, §3, §4, §5, §6, §7, §8

[3] = system: P. aeruginosa strain PAR 50 biofilm; test: Early biofilm model, Congo red staining; settings: for absorbance (Congo red, biofilm formation): early biofilm, 0.9 mM, 492 nm
Description: as §1, §2, §3, §4, §5, §6, §7, §8

[4] = system: P. aeruginosa strain PAR 20 biofilm; test: Mature biofilm model, Congo red staining; settings: for absorbance (Congo red, biofilm development): mature biofilm, compound added 48 h after induction of biofilm
Description: as §4, §5
(§9) Mature biofilm model: the tested substances were added 48 hours after adherence of bacteria to the wells in a 96-well plate. The growth conditions of P. aeruginosa were exactly the same, as described above for the early biofilm model.
(§10) After the addition of iminosugars (compounds 1, 2, 3 and 4), the biofilm formation and the number of viable bacteria were checked in the following time intervals: 48, 48.5, 56, 72, 96 hours.

[5] = system: P. aeruginosa strain PAR 5 biofilm; test: Mature biofilm model, Congo red staining; settings: for absorbance (Congo red, biofilm development): mature biofilm, compound added 48 h after induction of biofilm
Description: as §4, §5, §9, §10

[6] = system: P. aeruginosa strain PAR 50 biofilm; test: Mature biofilm model, Congo red staining; settings: for absorbance (Congo red, biofilm development): mature biofilm, compound added 48 h after induction of biofilm
Description: as §4, §5, §9, §10

[7] = system: P. aeruginosa strain PAR 20; test: Number of viable bacteria in early and mature biofilm (viable count)
Description: as §7, §10
(§11) Numbers of viable bacteria contained in the early and mature biofilm were estimated on separate plates with wells filled with tested P. aeruginosa strains as described above (PAR 5, PAR 20, PAR 50).
(§12) At the same time intervals, biofilm content in each well was removed and mixed by multiple pippeting and transferred to sterile tubes. Then decimal dilutions of the bacterial suspension were made in TSB broth, plated on McConkey Agar (Oxoid), and incubated at 37° C. for 24 hours.
(§13) Numbers of colonies grown on platter were counted and total numbers of the viable bacteria calculated as colony forming units (CFU) per ml.
(§14) The results depict logs of CFU/ml for three P. aeruginosa strains: PAR 5, PAR 20 and PAR 50 measured at different time intervals (0 hours, 8 hours, 24 hours, 48 hours, 56 hours, 72 hours and 96 hours). The detection limit is 100 CFU/ml.

[8] = system: P. aeruginosa strain PAR 50; test: as above
Description: as §7, §10, §11, §12, §13, §14

[9] = system: P. aeruginosa strain PAR 5; test: as above
Description: as §7, §10, §11, §12, §13, §14

[10] = system: P. aeruginosa strain PAR 5 biofilm; test: Reduction of biofilm growth (percent vs culture control)
Excerpt: FIG. 4A represents the effect of the tested compounds (1, 2, 3 and 4) on exopolysaccharide biosynthesis in the early stages and mature P. aeruginosa biofilm formation, strain PAR 5. The abscissa represents the time (in hours) in order to differentiate early biofilm and mature biofilm, and the ordinate represents the percentage of the biofilm reduction.
as §6, §9
(§15) The effect of the tested compounds (1, 2, 3 and 4) on the reduction of biofilm growth has also been studied on the three P. aeruginosa strains PAR 5, PAR 20, PAR 50.
(§16) (Percent decrease in biofilm thickness was obtained as a mean value from 3 consecutive measurements of the Congo Red stained biofilm using spectrophotometer after addition of the tested iminosugars in comparison to control regarded as 100%).

[11] = system: P. aeruginosa strain PAR 20 biofilm; test: as above
Excerpt: FIG. 4B represents the effect of the tested compounds (1, 2, 3 and 4) on exopolysaccharide biosynthesis in the early stages and mature P. aeruginosa biofilm formation, strain PAR 20. The abscissa represents the time (in hours) in order to differentiate early biofilm and mature biofilm, and the ordinate represents the percentage of the biofilm reduction.
as §6, §9, §15, §16

[12] = system: P. aeruginosa strain PAR 50 biofilm; test: as above
Excerpt: FIG. 4C represents the effect of the tested compounds (1, 2, 3 and 4) on exopolysaccharide biosynthesis in the early stages and mature P. aeruginosa biofilm formation, strain PAR 50. The abscissa represents the time (in hours) in order to differentiate early biofilm and mature biofilm, and the ordinate represents the percentage of the biofilm reduction.
as §6, §9, §15, §16

[13] = in comparison with culture control

OCC(O)C[C@H]1NC[C@H](O)[C@H](O)[C@H]1O (stereo partly drawn) [Compound 2, β-1-C-(2,3-dihydroxypropyl)-1,5-dideoxy-1,5-imino-L-arabinitol]
absorbance (Congo red, biofilm formation) ([1]; 8 hours): about 0.75 a.u. | absorbance (Congo red, biofilm formation) ([1]; 24 hours): about 0.9 a.u. | absorbance (Congo red, biofilm formation) ([1]; 48 hours): about 0.9 a.u. | effect on formation of an early biofilm [1, 13]: inhibit the formation of an early biofilm | biofilm formation at 8 hours, 24 hours and 48 hours ([2]; early biofilm): no biofilm formation | absorbance (Congo red, biofilm formation) ([2]; early biofilm, 8 hours): about 0.25 a.u. | absorbance (Congo red, biofilm formation) ([2]; early biofilm, 24 hours): about 0.25 a.u. | absorbance (Congo red, biofilm formation) ([2]; early biofilm, 48 hours): about 0.25 a.u. | effect on formation of an early biofilm [2, 13]: inhibit the formation of an early biofilm | absorbance (Congo red, biofilm formation) ([3]; 8 hours): about 0.8 a.u. | absorbance (Congo red, biofilm formation) ([3]; 24 hours): about 0.7 a.u. | absorbance (Congo red, biofilm formation) ([3]; 48 hours): about 1.1 a.u. | effect on formation of an early biofilm [3, 13]: inhibit the formation of an early biofilm | influence on mature biofilm formation [4]: weak influence | absorbance (Congo red, biofilm development) ([4]; 48 hours): about 0.6 a.u. | absorbance (Congo red, biofilm development) ([4]; 56 hours): about 0.7 a.u. | absorbance (Congo red, biofilm development) ([4]; 72 hours): about 1.1 a.u. | absorbance (Congo red, biofilm development) ([4]; 96 hours): about 2.0 a.u. | influence on mature biofilm formation [5]: weak influence | absorbance (Congo red, biofilm development) ([5]; 48 hours): about 0.75 a.u. | absorbance (Congo red, biofilm development) ([5]; 56 hours): about 1.0 a.u. | absorbance (Congo red, biofilm development) ([5]; 72 hours): about 1.25 a.u. | absorbance (Congo red, biofilm development) ([5]; 96 hours): about 1.5 a.u. | influence on mature biofilm formation [6]: weak influence | absorbance (Congo red, biofilm development) ([6]; 48 hours): about 2.0 a.u. | absorbance (Congo red, biofilm development) ([6]; 56 hours): about 1.75 a.u. | absorbance (Congo red, biofilm development) ([6]; 72 hours): about 1.75 a.u. | absorbance (Congo red, biofilm development) ([6]; 96 hours): about 2.0 a.u. | number of viable P. aeruginosa ([7]; early biofilm, 0 h): 2 × 10^6 CFU/ml | number of viable P. aeruginosa ([7]; early biofilm, 8 h): 4 × 10^7 CFU/ml | number of viable P. aeruginosa ([7]; early biofilm, 24 h): 3 × 10^8 CFU/ml | number of viable P. aeruginosa ([7]; early biofilm, 48 h): 1 × 10^9 CFU/ml | number of viable P. aeruginosa ([7]; mature biofilm, 56 h): 4 × 10^8 CFU/ml | number of viable P. aeruginosa ([7]; mature biofilm, 72 h): 3 × 10^7 CFU/ml | number of viable P. aeruginosa ([7]; mature biofilm, 96 h): 3 × 10^8 CFU/ml | number of viable P. aeruginosa ([8]; early biofilm, 0 h): 3 × 10^7 CFU/ml | number of viable P. aeruginosa ([8]; early biofilm, 8 h): 2 × 10^8 CFU/ml | number of viable P. aeruginosa ([8]; early biofilm, 24 h): 7 × 10^8 CFU/ml | number of viable P. aeruginosa ([8]; early biofilm, 48 h): 1 × 10^8 CFU/ml | number of viable P. aeruginosa ([8]; mature biofilm, 56 h): 6 × 10^9 CFU/ml | number of viable P. aeruginosa ([8]; mature biofilm, 72 h): 1 × 10^9 CFU/ml | number of viable P. aeruginosa ([8]; mature biofilm, 96 h): 9 × 10^9 CFU/ml | number of viable P. aeruginosa ([9]; early biofilm, 0 h): 8 × 10^6 CFU/ml | number of viable P. aeruginosa ([9]; early biofilm, 8 h): 2 × 10^7 CFU/ml | number of viable P. aeruginosa ([9]; early biofilm, 24 h): 1 × 10^7 CFU/ml | number of viable P. aeruginosa ([9]; early biofilm, 48 h): 1 × 10^7 CFU/ml | number of viable P. aeruginosa ([9]; mature biofilm, 56 h): 4 × 10^8 CFU/ml | number of viable P. aeruginosa ([9]; mature biofilm, 72 h): 2 × 10^8 CFU/ml | number of viable P. aeruginosa ([9]; mature biofilm, 96 h): 5 × 10^8 CFU/ml | reduction of biofilm growth ([10]; 8 hours of incubation): about 90% | reduction of biofilm growth ([10]; 24 hours of incubation): about 90% | reduction of biofilm growth ([10]; 48 hours of incubation): about 25% | reduction of biofilm growth ([10]; 72 hours of incubation): about 10% | effect on biofilm growth ([10]; notably an early biofilm): can reduce the biofilm growth | reduction of biofilm growth ([11]; 8 hours of incubation): about 45% | reduction of biofilm growth ([11]; 24 hours of incubation): about 45% | reduction of biofilm growth ([11]; 48 hours of incubation): about 0% | reduction of biofilm growth ([11]; 72 hours of incubation): about 0% | effect on biofilm growth ([11]; notably an early biofilm): can reduce the biofilm growth | reduction of biofilm growth ([12]; 8 hours of incubation): about 50% | reduction of biofilm growth ([12]; 24 hours of incubation): about 70% | reduction of biofilm growth ([12]; 48 hours of incubation): about 0% | reduction of biofilm growth ([12]; 72 hours of incubation): about 20% | effect on biofilm growth ([12]; notably an early biofilm): can reduce the biofilm growth
